Series [1] has as its system human APOE RNA. The series can be described thus: Dose-dependent inhibition of human APOE RNA in HepG2 cells, electroporation, 24 hours (Example 6). Format: cell-based. In short, it runs like this: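 IC50 derived from APOE RNA levels, given as percent of untreated control after GAPDH normalization (probe sets RTS3073 and RTS104). Oligonucleotides were delivered at multiple concentrations by electroporation into HepG2 cells seeded at 50,000 per well.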

Series [2] concerns human APOE RNA. The series is described as follows: Activity in APOE 1549 knock-in mice, single ICV bolus, 4 weeks (Example 8). Format: in vivo. To be noted: n = 2, single ICV bolus of 300 μg, four weeks post treatment, Table 18. The protocol:
Modified oligonucleotides described above were tested in the 1549 APOE knock-in mouse model described above.
APOE knock-in mice were divided into groups of either 2 or 6 mice each as described in the tables below. Each mouse received a single intracerebroventricular (ICV) bolus of 300 μg of modified oligonucleotide. A group of either 3 or 6 mice received a single ICV bolus with PBS as a negative control.
Four weeks post treatment, mice were sacrificed and RNA was extracted from cortical brain tissue and spinal cord for quantitative real-time RT-PCR analysis of RNA expression of APOE using primer probe set RTS3073 (described herein above). APOE RNA levels were normalized to mouse Ppia. Mouse Ppia was amplified using primer probe set m_cyclo24 (described herein above). Results are presented as percent human APOE RNA relative to the amount of human APOE RNA in PBS treated animals, (% control). Each experiment is identified in separate tables below.

In series [3] the test system is human APOE RNA. The series can be described thus: Activity in APOE C57BL/6NTac-Apoeem7250 knock-in mice, single ICV bolus, 20 weeks (Example 13). In kind it is in vivo. To be noted: single ICV bolus 300 μg, 20 weeks post treatment, normalized to mouse Ppia. The procedure, abridged: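 Cortical and spinal cord RNA was assayed by real-time RT-PCR for human APOE, normalized to mouse Ppia and reported as percent of PBS controls. Tissue was taken twenty weeks after one 300 μg intracerebroventricular bolus in APOE knock-in mice, 4 per group.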

pIC50: −log10 of the molar value. Strand notation (5' to 3'): a small letter for the sugar, then the base; units joined by * are phosphorothioate-linked, units joined directly phosphodiester-linked; [ ] holds rarer units or linkages, { } end groups; capitals alone tell only the bases. [ms] = mesyl phosphoramidate linkage; e = 2'-O-(2-methoxyethyl) (MOE); [5mC] = 5-methylcytosine; d = 2'-deoxy (DNA)

The values below come from patent US20250353873A1, “COMPOUNDS AND METHODS FOR MODULATING APOE EXPRESSION” (Ionis Pharmaceuticals, Inc., priority 2024, published 2025).

For orientation: pIC50 means the IC50 on a negative log10 scale, so that one unit is a factor of ten.

“1736523: 6-10-4 MOE gapmer CTTGGTGAATCTTTATTAAA, linkages ssoooszzssssssssoss (e[5mC]*eT*eTeGeGeT*dG[ms]dA[ms]dA*dT*d[5mC]*dT*dT*dT*dA*dT*eTeA*eA*eA) [compound 1736523]” gave a pIC50 in series [1] of 6.17. The “APOE RNA (% UTC)” value in series [1] (5 nM) amounted to 97 % UTC; in series [1] (13 nM), 114 % UTC; in series [1] (33 nM), 108 % UTC; in series [1] (82 nM), 79 % UTC; in series [1] (205 nM), 78 % UTC; in series [1] (512 nM), 47 % UTC. Moreover, the “APOE RNA (% UTC)” value was 29 % UTC in series [1] (1,280 nM), 39 % UTC in series [1] (3,200 nM), 5 % UTC in series [1] (8,000 nM) and 4 % UTC in series [1] (20,000 nM). The “APOE RNA (% control) Cortex” value was determined as 42 % control in series [2] and 73 % control in series [3]. For the same substance, the “APOE RNA (% control) Spinal Cord” value came out at 34 % control in series [2] and 44 % control in series [3].

In series [1], “1736524: 6-10-4 MOE gapmer CTTGGTGAATCTTTATTAAA, linkages sssooozzssssssssoss (e[5mC]*eT*eT*eGeGeTdG[ms]dA[ms]dA*dT*d[5mC]*dT*dT*dT*dA*dT*eTeA*eA*eA) [compound 1736524]” showed a pIC50 of 5.96. Besides, the “APOE RNA (% UTC)” value stood at 97 % UTC in series [1] (5 nM); 101 % UTC in series [1] (13 nM); 89 % UTC in series [1] (33 nM); 91 % UTC in series [1] (82 nM); 66 % UTC in series [1] (205 nM); 66 % UTC in series [1] (512 nM). The “APOE RNA (% UTC)” value amounted to 39 % UTC in series [1] (1,280 nM), 34 % UTC in series [1] (3,200 nM), 28 % UTC in series [1] (8,000 nM) and 17 % UTC in series [1] (20,000 nM). In addition, the “APOE RNA (% control) Cortex” value came out at 36 % control in series [2] and 67 % control in series [3]. The “APOE RNA (% control) Spinal Cord” value was 31 % control in series [2] and 62 % control in series [3].

Regarding “1736525: 6-10-4 MOE gapmer CTTGGTGAATCTTTATTAAA, linkages sooosszzsssssssssss (e[5mC]*eTeTeGeG*eT*dG[ms]dA[ms]dA*dT*d[5mC]*dT*dT*dT*dA*dT*eT*eA*eA*eA) [compound 1736525]”, the pIC50 in series [1] is 5.89. Further, the “APOE RNA (% UTC)” value worked out at 101 % UTC in series [1] (5 nM); 100 % UTC in series [1] (13 nM); 106 % UTC in series [1] (33 nM); 113 % UTC in series [1] (82 nM); 70 % UTC in series [1] (205 nM); 69 % UTC in series [1] (512 nM). The “APOE RNA (% UTC)” value in series [1] (1,280 nM) is listed as 37 % UTC; in series [1] (3,200 nM) it was 42 % UTC; in series [1] (8,000 nM) it was 22 % UTC; in series [1] (20,000 nM), 7 % UTC. The “APOE RNA (% control) Cortex” value was 35 % control in series [2] and 71 % control in series [3]. Besides, the figures for the “APOE RNA (% control) Spinal Cord” value in series [2] and in series [3] were 41 % control and 118 % control, respectively.

Substance “1736522: 6-10-4 MOE gapmer CTTGGTGAATCTTTATTAAA, linkages sooosszzssssssssoss (e[5mC]*eTeTeGeG*eT*dG[ms]dA[ms]dA*dT*d[5mC]*dT*dT*dT*dA*dT*eTeA*eA*eA) [compound 1736522]” gave a negative logarithm of the IC50 (pIC50) in series [1] of 5.86. Moreover, the “APOE RNA (% UTC)” value in series [1] (5 nM) came out at 110 % UTC; in series [1] (13 nM), 88 % UTC; in series [1] (33 nM), 90 % UTC; in series [1] (82 nM), 82 % UTC; in series [1] (205 nM), 67 % UTC; in series [1] (512 nM), 59 % UTC. The “APOE RNA (% UTC)” value was 45 % UTC in series [1] (1,280 nM), 41 % UTC in series [1] (3,200 nM), 18 % UTC in series [1] (8,000 nM) and 43 % UTC in series [1] (20,000 nM). Moreover, the “APOE RNA (% control) Cortex” value was determined as 41 % control in series [2] and 64 % control in series [3]. The “APOE RNA (% control) Spinal Cord” value was 39 % control in series [2] and 56 % control in series [3].

Consider “1736520: 6-10-4 MOE gapmer CTTGGTGAATCTTTATTAAA, linkages sossoszzzssssssssss (e[5mC]*eTeT*eG*eGeT*dG[ms]dA[ms]dA[ms]dT*d[5mC]*dT*dT*dT*dA*dT*eT*eA*eA*eA) [compound 1736520]”, for which the pIC50 in series [1] was 6.24. The “APOE RNA (% UTC)” value is listed as 109 % UTC in series [1] (5 nM); 87 % UTC in series [1] (13 nM); 92 % UTC in series [1] (33 nM); 72 % UTC in series [1] (82 nM); 62 % UTC in series [1] (205 nM); 34 % UTC in series [1] (512 nM). The “APOE RNA (% UTC)” value in series [1] (1,280 nM) was 28 % UTC; in series [1] (3,200 nM), 11 % UTC; in series [1] (8,000 nM), 11 % UTC; in series [1] (20,000 nM), 83 % UTC. For the same substance, the “APOE RNA (% control) Cortex” value amounted to 41 % control in series [2] and 65 % control in series [3]. The “APOE RNA (% control) Spinal Cord” value in series [2] was found to be 32 % control; in series [3] it was 62 % control.

Consider “1736527: 6-10-4 MOE gapmer CTTGGTGAATCTTTATTAAA, linkages sssooozzsssssssssss (e[5mC]*eT*eT*eGeGeTdG[ms]dA[ms]dA*dT*d[5mC]*dT*dT*dT*dA*dT*eT*eA*eA*eA) [compound 1736527]”, for which, in series [1], the pIC50 was 5.80. For the same substance, the “APOE RNA (% UTC)” value stood at 104 % UTC in series [1] (5 nM); 108 % UTC in series [1] (13 nM); 96 % UTC in series [1] (33 nM); 97 % UTC in series [1] (82 nM); 92 % UTC in series [1] (205 nM); 63 % UTC in series [1] (512 nM). The “APOE RNA (% UTC)” value in series [1] (1,280 nM) stood at 37 % UTC; in series [1] (3,200 nM), 37 % UTC; in series [1] (8,000 nM) it was 34 % UTC; in series [1] (20,000 nM), 23 % UTC. For the same substance, the figures for the “APOE RNA (% control) Cortex” value in series [2] and in series [3] were 37 % control and 64 % control, respectively. Also, the “APOE RNA (% control) Spinal Cord” value in series [2] turned out to be 54 % control; in series [3] it was 58 % control.
